Assay [1] concerns soybean plants (variety S20-G7). As to the kind of experiment: Water use (WU) of soybean plants after foliar spray. The conditions noted are these: for Total % WU 0 to 2 DAA: cumulative; for change in vivo at 100 µM / change in vivo at 500 µM: Glycine max, vs negative control; for change in vivo at 100 µM / Total 0 to 2 DAA / change in vivo at 500 µM: foliar spray; for Total 0 to 2 DAA: cumulative WU vs negative control. The assay is classed as in vivo. Here is the method: Chemicals were tested for their effect on reducing plant water use (WU) after being applied by foliar sprays onto soybean plants (variety S20-G7)—grown in controlled environment plant growth chambers. All chemicals were applied using an emulsifiable concentrate (EC) formulation that was diluted with water containing additional surfactant (EXTRAVON 1 g/20 L) to the indicated concentrations. Plant WU was assessed by multiple pot weighing processes before and after application of the chemicals at the indicated times (expressed in days after application (DAA)). The WU data before application was used to correct for differences in water use due to non-treatment effects (e.g. due to differences in plant size). The results are expressed compared to negative control treatment (water with EXTRAVON 1 g/20 L).
Application of the chemicals (0 DAA) takes place approximately between 8 to 9:30 a.m. […] The cumulative total WU (0-2 DAA) is calculated by summing the WU data mentioned above.

The target of assay [2] is PYR1-HAB1 (Arabidopsis thaliana (Mouse-ear cress), UniProt O49686). As to the kind of experiment: PP2C activity assay, PYR1-HAB1. Type of assay: biochemical. The conditions noted are these: 100 nM PP2C, 200 nM PYR/PYL protein, 4-nitrophenyl phosphate substrate; read-out: IC50 of inhibition of PYR1-HAB1. The source says: (§1) The protein HAB1, a type 2 protein phosphatase (PP2C), is inhibited by PYR/PYL proteins in dependence of abscisic acid or other receptor agonists. The potency of a receptor agonists correlates with the level of inhibition of the PP2C, and therefore the IC50 (PYR1-HAB1) can be used to compare the relative activity of different chemical analogues. Since inhibition of PP2C correlates to inhibition of seed-germination and increase in plant water-use efficiency, it serves as a powerful tool to quantify biological potential of a chemical acting as an analogue of abscisic acid.
(§2) HAB1 and PYL proteins were expressed and purified as described in Park et al. ((2009) Science 324(5930):1068-1071), with minor modifications. To obtain GST-HAB1, the HAB1 cDNA was cloned into pGex-2T. Expression was conducted in BL21[DE3]pLysS host cells. Transformed cells were pre-cultured overnight, transferred to LB medium and cultured at 30° C. to culture A600 of ˜0.5.
(§3) The culture was then cooled on ice and MnCl2 added to 4 mM and IPTG added to 0.3 mM. After 16 hours incubation at 15° C., cells were harvested and recombinant proteins were purified on glutathione agarose as described in Park et al. To obtain 6×His-PYL receptor fusion proteins, expression constructs previously described by Okamoto et al. 2013, (PNAS 110(29): 12132-12137) were used. ABA receptors were expressed and purified as described above.
(§4) For the values shown in Table B5, PP2C activity assays using recombinant receptors and PP2Cs were carried out as follows: purified proteins were pre-incubated in 160 μl assay buffer containing 100 mM Tris-HCl-pH7.9, 100 mM NaCl, 3 μg bovine serum albumin, 0.1% 2-mercaptoethanol, 1 mM MnCl2 with ABA or agonists (compounds of the present invention) for 30 minutes at room temperature. Reactions were started by adding 40 μL of a reaction solution containing 25 mM 4-nitrophenyl phosphate in assay buffer after which absorbance measurements were immediately collected using a 405 nm on Wallac plate reader. Reactions contained 100 nM PP2C and 200 nM PYR/PYL proteins. […] For inferring IC50 values, calculations from receptor/PP2C assays containing different concentrations (ranging from 1 μM to 4 nM) were. The obtained dose response data was fit to a log (inhibitor) versus response-(variable slope) model using non-linear regression to infer the IC50s, using Graph Pad Prism 6.0.

Assay [3] has as its target PYL2-HAB1 (Arabidopsis thaliana (Mouse-ear cress), UniProt O80992). As to the kind of experiment: PP2C activity assay, PYL2-HAB1. Type of assay: biochemical. The conditions noted are these: 100 nM PP2C, 200 nM PYR/PYL protein, 4-nitrophenyl phosphate substrate; read-out: IC50 of inhibition of PYL2-HAB1.
Text: as §1, §2, §3, §4

The mark [4] stands for this setting: repeated experiment (Table B2), rate not given.
Setting [5] is: 0 h, application rate 100 μM, read-out: % WU 0 DAA AM.
Where [6] appears, read: 0 h, application rate 100 μM, read-out: % WU 0 DAA PM.
Setting [7] is: 24 h, application rate 100 μM, read-out: % WU 1 DAA AM.
[8] abbreviates: 24 h, application rate 100 μM, read-out: % WU 1 DAA PM.
The mark [9] stands for this setting: 48 h, application rate 100 μM, read-out: % WU 2 DAA AM.

Molecules are shown by their SMILES. Where two headings read alike, the source gives them in different places.

Sequence of PYL2-HAB1 (O80992 whole entry, looked up): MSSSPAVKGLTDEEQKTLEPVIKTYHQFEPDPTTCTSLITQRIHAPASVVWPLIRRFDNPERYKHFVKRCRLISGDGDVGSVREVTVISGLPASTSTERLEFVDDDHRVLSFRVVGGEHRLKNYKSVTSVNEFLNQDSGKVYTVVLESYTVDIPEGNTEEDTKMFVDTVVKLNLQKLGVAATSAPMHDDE
Sequence of PYL2-HAB1 (Q9CAJ0 whole entry partner, looked up): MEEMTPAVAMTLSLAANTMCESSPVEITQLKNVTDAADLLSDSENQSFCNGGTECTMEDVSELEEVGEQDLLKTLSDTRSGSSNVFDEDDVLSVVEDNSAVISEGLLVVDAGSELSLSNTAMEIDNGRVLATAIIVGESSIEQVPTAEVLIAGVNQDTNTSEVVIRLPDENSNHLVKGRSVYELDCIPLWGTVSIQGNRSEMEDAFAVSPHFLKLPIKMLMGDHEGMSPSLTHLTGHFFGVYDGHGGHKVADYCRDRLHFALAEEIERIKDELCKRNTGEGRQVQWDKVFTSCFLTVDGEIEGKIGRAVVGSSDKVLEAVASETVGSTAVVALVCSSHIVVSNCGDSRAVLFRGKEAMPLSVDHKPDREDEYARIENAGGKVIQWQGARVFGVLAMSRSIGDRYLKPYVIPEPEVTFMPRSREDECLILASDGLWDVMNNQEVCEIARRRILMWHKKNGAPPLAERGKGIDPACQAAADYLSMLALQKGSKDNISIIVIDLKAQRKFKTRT
Sequence of PYR1-HAB1 (O49686 whole entry, looked up): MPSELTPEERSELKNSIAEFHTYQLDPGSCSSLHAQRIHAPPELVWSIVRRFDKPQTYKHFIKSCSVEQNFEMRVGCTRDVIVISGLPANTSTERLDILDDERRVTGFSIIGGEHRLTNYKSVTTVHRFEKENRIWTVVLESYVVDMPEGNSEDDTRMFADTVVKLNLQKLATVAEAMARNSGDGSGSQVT
Sequence of PYR1-HAB1 (Q9CAJ0 whole entry partner, looked up): as the sequence (Q9CAJ0 whole entry partner, looked up) above

As to `CCCN1C(=O)CCc2cc(NS(=O)(=O)Cc3ccc(C4CC4)cc3)cc(Cl)c21` [Compound 1.025, N-(8-chloro-2-oxo-1-propyl-3,4-dihydroquinolin-6-yl)-1-(4-cyclopropylphenyl)methanesulfonamide], in assay [1] (setting [4]), the “% WU 2 DAA PM” value is listed as −13.6% and the “Total % WU 0 to 2 DAA” value is −22.1%. The IC50 in assay [2] is 83 nM. Moreover, the IC50 in assay [3] was determined as 114 nM.

In the case of `CCCN1C(=O)CC(C)c2cc(NS(=O)(=O)Cc3ccc(C4CC4)cc3)ccc21` (centres unmarked) [Compound 1.179], the results for the IC50 in assay [2] and in assay [3] were 82 nM and 64 nM, respectively.

As for `CCCN1C(=O)CCc2cc(NS(=O)(=O)Cc3ccc(C4CC4)cc3)cc(F)c21` [Compound 1.214, 1-(4-cyclopropylphenyl)-N-(8-fluoro-2-oxo-1-propyl-3,4-dihydroquinolin-6-yl)methanesulfonamide], the IC50 in assay [2] came to 28 nM; in assay [3], 130 nM.

Take `CCCN1C(=O)CCc2cc(NS(=O)(=O)Cc3ccc(C4CC(=O)C4(C)C)cc3)ccc21` (centres unmarked) [Compound 8.004, 1-[4-(2,2-dimethyl-3-oxo-cyclobutyl)phenyl]-N-(2-oxo-1-propyl-3,4-dihydroquinolin-6-yl)methanesulfonamide]: in assay [1] (setting [4]), the “% WU 2 DAA PM” value was determined as 1% and the “Total % WU 0 to 2 DAA” value is given as −0.7%.

For the compound `CCCN1C(=O)CCc2cc(NS(=O)(=O)Cc3ccc(C4CCCC4)cc3)ccc21` [Compound 9.004, 1-(4-cyclopentylphenyl)-N-(2-oxo-1-propyl-3,4-dihydroquinolin-6-yl)methanesulfonamide], the “% WU 2 DAA PM” value in assay [1] (setting [4]) is recorded as 0.5%. In addition, in assay [1] (setting [4]), the “Total % WU 0 to 2 DAA” value is −1.4%. The results for the IC50 in assay [2] and in assay [3] were 97 nM and > 1000 nM, respectively.

Regarding `CCCN1C(=O)CCc2cc(NS(=O)(=O)Cc3ccc(C)cc3)ccc21` [Quinabactin, quinabactin, reference compound], in assay [1] (setting [4]), the “% WU 0 DAA AM” value is −22%, the “% WU 0 DAA PM” value is reported as −23%, the “% WU 1 DAA AM” value was −17% and the “% WU 1 DAA PM” value was −15%. For the same compound, in assay [1] (setting [4]), the “% WU 2 DAA AM” value is listed as −12%, the “% WU 2 DAA PM” value is reported as −11% and the “Total % WU 0 to 2 DAA” value is −16%. In assay [2], the IC50 stood at 104 nM. The IC50 in assay [3] was found to be 262 nM.

Take `CCCN1C(=O)CCc2cc(NS(=O)(=O)Cc3ccc(C)cc3)ccc21` [drawing 25, reference compound]: the change in vivo at 100 µM in assay [1] (setting [5]) is -1.3%; in assay [1] (setting [6]), -0.7%; in assay [1] (setting [7]), -2.2%; in assay [1] (setting [8]), -0.2%; in assay [1] (setting [9]) it was -3.4%. Moreover, the “Total 0 to 2 DAA” value in assay [1] (application rate 100 μM) is listed as −2.0%.

As to `CCCN1C(=O)CCc2cc(NS(=O)(=O)Cc3ccc(C4CC4)cc3)ccc21` [drawing 26], the change in vivo at 100 µM is -0.8% in assay [1] (setting [5]); -3.8% in assay [1] (setting [6]); -3% in assay [1] (setting [7]); -2.8% in assay [1] (setting [8]); -5.2% in assay [1] (setting [9]). The “Total 0 to 2 DAA” value in assay [1] (application rate 100 μM) is −3.8%.

In the case of `CCCN1C(=O)CCc2cc(NS(=O)(=O)Cc3ccc(C4CC4)cc3)ccc21` [drawing 27], the change in vivo at 500 µM in assay [1] (0 h, application rate 500 μM, read-out: % WU 0 DAA AM) was -8.8%; in assay [1] (0 h, application rate 500 μM, read-out: % WU 0 DAA PM), -10.7%; in assay [1] (24 h, application rate 500 μM, read-out: % WU 1 DAA AM), -9.4%; in assay [1] (24 h, application rate 500 μM, read-out: % WU 1 DAA PM), -6.4%; in assay [1] (48 h, application rate 500 μM, read-out: % WU 2 DAA AM) it was -6.1%. In addition, the “Total 0 to 2 DAA” value in assay [1] (application rate 500 μM) is reported as −8.9%.

In general, IC50 refers to the midpoint of a concentration-inhibition curve.

Source of the values: patent US10167261B2, “2-oxo-3,4-dihydroquinolin-6-yl sulphonamide CPDS and their use as plant growth regulators” (THE REGENTS OF THE UNIVERSITY OF CALIFORNIA, priority 2014, dated 2019).
